Measured values taken from publication PMC5447756, “Identification of Epigallocatechin-3- Gallate as an Inhibitor of Phosphoglycerate Mutase 1” (Frontiers in Pharmacology, 2017).

Key:
[1] = target: T1, PGAM1 (Homo sapiens, UniProt P18669); assay: PGAM1 coupled enzymatic assay (PKM1/enolase, Kinase-Glo); format: biochemical; settings: recombinant PGAM1, coupled enzyme assay; read-out: IC50, inhibition of PGAM1
T1 construct: His; made in house; host or cells: E. coli BL21
Text: To identify new PGAM1 inhibitors, we utilized a coupled PGAM1 and pyruvate kinase isozymes M1 (PKM1)/enolase biochemical assay followed by a counter screen to exclude compounds with activity toward PKM1 or enolase. […] Using these biochemical assays, we screened a chemical library composed of 800 purified compounds derived from natural products.

[2] = test system: T2, phosphoglycerate dehydrogenase (PHGDH); assay: PHGDH enzymatic assay; format: biochemical; settings: at a concentration up to 100 μM
T2 construct: His; made in house; host or cells: E. coli BL21
Procedure: Assays were conducted in 10 μL buffer (200 mM Tris-HCl pH8.1, 400 mM KCl, 2 mM GSH, and 10 mM EDTA) containing recombinant PHGDH, 0.6 mM NAD, 1 mM 3-PG. The NADH product can be measured by diaphorase/rezasurin system.

[3] = test system: T3, mutant isocitrate dehydrogenase 1 (IDH1 R132H); assay: IDH enzymatic assay; format: biochemical; settings: at a concentration up to 100 μM
T3 construct: purchased Cayman Chemical
Procedure: Assays were conducted in 10 μL buffer [150 mM NaCl, 20 mM Tris pH7.5, 10 mM MgCl2, 0.05% (w/v) bovine serum albumin] containing 2.5 μL of test compound, 5 μL enzyme solution (10 ng/μL mutant IDH, Cayman Chemical) and 2.5 μL substrate solution (1 mM α-KG, 4 μM NADPH) added into a 384-well plate followed by incubation at room temperature for 60 min. After incubation, NADPH remaining amount was measured by adding 5 μL buffer containing 5 μM resazurin and 0.01 unit diaphorase and incubated at room temperature for 10 min. The plate was read using EnVision (Perkin Elmer) at Ex 540 Em 590 nm.

[4] = target: T1, PGAM1; assay: Surface plasmon resonance binding to PGAM1; settings: SPR, 25°C, 1:1 Langmuir binding model; read-out: dissociation constant (Kd-value)
Procedure: Surface plasmon resonance (SPR) assay was carried out with a ProteOn XPR36 instrument (Bio-Rad). PGAM1 was coupled to the surface of a GLH sensor chip according to the manufacturer’s instructions. […] Resonance units (RU) changes represent the binding condition. The dissociation constant (Kd) was calculated using the ProteOn Manager 3.1 software program by fitting to a 1:1 Langmuir binding model.

[5] = test system: T4, PGAM1 R10K mutant; assay: Inhibition of PGAM1 R10K mutant; format: biochemical, human; settings: compared to the wild-type PGAM1
T4 construct: His; made in house; host or cells: E. coli BL21
Procedure: (§1) BL21 competent cells were transformed by His-tagged pETDuet-1-PGAM1 (wildtype or mutants) or His-tagged pETDuet-1-PHGDH constructs. Cells were collected, resuspended in buffer A (20 mM Tris, 200 mM NaCl, 20 mM imidazole, pH 8.0) and sonicated on ice until complete lysis. His-tagged PGAM1, PGAM1 mutants or PHGDH recombinant proteins in supernatant were purified using Ni-NTA beads (QIAGEN), washed with buffer A, and eluted with buffer B (20 mM Tris, 200 mM NaCl, 250 mM imidazole, pH 8.0). All obtained proteins were stored at -80°C.
(§2) Recombinant PGAM1 enzymatic activity was measured by a multiple enzymes coupled assay. In brief, assay was conducted in 10 μL buffer (50 mM HEPES, PH 7.5, 10 mM MgCl2) containing 5 μL 1 mg/ml recombinant PGAM1 enzyme, 2.5 μL test compound, 2.5 μL 1 mM ADP, 1 mM 3-PG, 0.5 units/ml enolase (Sigma–Aldrich) and 0.5 units/mL recombinant pyruvate kinase M1 (Sigma–Aldrich). The production of ATP was measured by Kinase-Glo® Max Luminescent Kinase Assay (Promega).
(§3) H186R was a well-validated catalytically dead mutant of PGAM1 ([Zhang et al., 2016]; [Qu et al., 2017]), which was used as a control (Figure 2B).

[6] = test system: T5, PGAM1 R116K mutant; assay: Inhibition of PGAM1 R116K mutant; format: biochemical, human; settings: compared to the wild-type PGAM1
T5 construct: His; made in house; host or cells: E. coli BL21
Procedure: as §1, §2, §3

[7] = test system: T6, PGAM1 R191K mutant; assay: Inhibition of PGAM1 R191K mutant; format: biochemical, human; settings: compared to the wild-type PGAM1
T6 construct: His; made in house; host or cells: E. coli BL21
Procedure: as §1, §2, §3

[8] = target: T1, PGAM1; assay: Substrate 3-PG competition, Lineweaver-Burk plot analysis; format: biochemical
[9] = test system: NCI-H1299 cells; assay: Intracellular 2-PG measurement; format: cell-based, human; settings: NCI-H1299, 24 h, free compound
Procedure: A 2-Phosphoglycerate Colorimetric/Fluorometric Assay kit (BioVision) was used to measure cellular 2-PG level. Cells were collected after exposure to compounds for 24 h, washed with PBS, and lysed with ice-cold 2-PG assay buffer. […] The samples were measured by using EnVision® at Ex 535 Em 587 nm.

[10] = test system: Caco-2 monolayer; assay: Caco-2 monolayer permeability; format: in vitro ADME; settings: result in words
Procedure: The solubility of compounds was measured by Nephelometry using the NEPHELOstar plus apparatus (BMG Lab Technologies). Caco-2 monolayer was cultivated on permeable support. In details, after 21-day culture, the integrity of the cell monolayer of every well was verified by measuring the transepithelial electrical resistance (TEER). The diluted solution was added to corresponding well and the plate was incubated at 37°C for 1.5 h. 100 μL samples were collected from both apical and basolateral sides at the initial and end time points and the sample concentrations were measured for the evaluation of mass balance.

[11] = test system: NCI-H1299 cells; assay: Cell proliferation assay, NCI-H1299; format: cell-based, human
Procedure: Cells were seeded into a 6-well plate. […] The cells were harvested after incubation for 72 h and the proliferation inhibition rate was calculated by cell number counting (Beckman).

[12] = test system: hexokinase 2 (HK2); parameters: method as in Gao et al., 2015; settings: human tongue carcinoma; ref Gao et al., 2015; cited from earlier work
[13] = test system: human xenograft tumors; parameters: method as in Hitosugi et al., 2012; settings: mice models carrying human xenograft tumors; ref Hitosugi et al., 2012; cited from earlier work

T1 sequence (P18669 whole entry): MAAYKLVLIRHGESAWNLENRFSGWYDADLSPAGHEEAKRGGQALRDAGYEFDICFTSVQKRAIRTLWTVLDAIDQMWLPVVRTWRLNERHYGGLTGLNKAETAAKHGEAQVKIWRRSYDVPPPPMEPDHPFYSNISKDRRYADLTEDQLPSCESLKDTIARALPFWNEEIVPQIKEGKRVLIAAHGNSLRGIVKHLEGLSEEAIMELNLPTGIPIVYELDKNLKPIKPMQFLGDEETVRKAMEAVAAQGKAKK

Compound	IC50 [1]	inhibition of PHGDH [2]	inhibition of mutant IDH1 [3]	Kd [4]	inhibitory activity toward R10K mutant [5]	inhibitory activity toward R116K mutant [6]	inhibitory activity toward R191K mutant [7]	pattern of inhibition with substrate 3-PG [8]	concentration giving apparent inhibition of intracellular 2-PG level [9]	membrane permeability [10]	cell growth ([11]; NCI-H1299, 72 h, cell counting)	effect of stable knockdown of PGAM1 on growth inhibition ([11]; PGAM1 stable knockdown NCI-H1299 (shPGAM1) vs scramble, 72 h)	expression of hexokinase 2 (HK2) [12]	anticancer properties in xenograft mice [13]
(-)-Epigallocatechin-3-gallate [EGCG]	0.49 ± 0.17 µM	did not inhibit	did not inhibit	0.78 µM	lost its inhibitory activity	lost its inhibitory activity	lost its inhibitory activity	non-competitive	80 µM	extremely low membrane permeability	dose-dependently inhibited cell growth	partially rescued	inhibits the expression	
O=C1c2ccccc2C(=O)c2c1cc(S(=O)(=O)Nc1ccc(C(F)(F)F)cc1)c(O)c2O [PGMI-004A, reference compound]					only slightly affect the activity	only slightly affect the activity	only slightly affect the activity		20 µM					exhibited evident anticancer properties
